Data as given in PubChem BioAssay AID2060887 (Molecular Pharmacology Branch, DTP, NCI, 2025).

System: 782815-120-R-J1-PDC complex spheroid viability
Assay: Anticancer human tumor 782815-120-R-J1-PDC patient-derived colon adenocarcinoma cell line growth inhibition [RAS]
Details: for IC50: curve of first compound; for viability, T/C: stronger effect = lower value
In short: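 Multi-cell-type spheroids: tumor cells plus HUVEC endothelial cells and mesenchymal stem cells. RAS-pathway inhibitors were combined with targeted agents, each dosed in half-log steps down from clinical Cmax, or from 10 microM when Cmax was unknown.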

[1] = second compound 0.000949 µM, first compound 0.00316 µM
[2] = second compound 0.000949 µM, first compound 0.01 µM
[3] = second compound 0.000949 µM, first compound 0.0316 µM
[4] = second compound 0.000949 µM, first compound 0.1 µM
[5] = second compound 0.003 µM, first compound 0.00316 µM
[6] = second compound 0.003 µM, first compound 0.01 µM
[7] = second compound 0.003 µM, first compound 0.0316 µM
[8] = second compound 0.003 µM, first compound 0.1 µM
[9] = second compound 0.00949 µM, first compound 0.00316 µM
[10] = second compound 0.00949 µM, first compound 0.01 µM
[11] = second compound 0.00949 µM, first compound 0.0316 µM
[12] = second compound 0.00949 µM, first compound 0.1 µM
[13] = second compound 0.03 µM, first compound 0.00316 µM
[14] = second compound 0.03 µM, first compound 0.01 µM
[15] = second compound 0.03 µM, first compound 0.0316 µM
[16] = second compound 0.03 µM, first compound 0.1 µM
[17] = second compound 0.0949 µM, first compound 0.00316 µM
[18] = second compound 0.0949 µM, first compound 0.01 µM
[19] = second compound 0.0949 µM, first compound 0.0316 µM
[20] = second compound 0.0949 µM, first compound 0.1 µM
[21] = second compound 0.3 µM, first compound 0.00316 µM
[22] = second compound 0.3 µM, first compound 0.01 µM
[23] = second compound 0.3 µM, first compound 0.0316 µM
[24] = second compound 0.3 µM, first compound 0.1 µM
[25] = second compound 0.000949 µM, first compound 0.316 µM
[26] = second compound 0.000949 µM, first compound 1 µM
[27] = second compound 0.003 µM, first compound 0.316 µM
[28] = second compound 0.003 µM, first compound 1 µM
[29] = second compound 0.00949 µM, first compound 0.316 µM
[30] = second compound 0.00949 µM, first compound 1 µM
[31] = second compound 0.03 µM, first compound 0.316 µM
[32] = second compound 0.03 µM, first compound 1 µM
[33] = second compound 0.0949 µM, first compound 0.316 µM
[34] = second compound 0.0949 µM, first compound 1 µM
[35] = second compound 0.3 µM, first compound 0.316 µM
[36] = second compound 0.3 µM, first compound 1 µM
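Also: spheroids exposed to compounds for 7 days before reading.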
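For viability, T/C in this document: 100% = DMSO vehicle control viability.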

`CC(C)n1nc(-c2ccc3oc(N)nc3c2)c2c(N)ncnc21` + CCn1c(-c2cc(N3CCN(C)CC3)cnc2C(C)OC)c2c3cc(ccc31)-c1csc(n1)CC(NC(=O)C1CC1C)C(=O)N1CCCC(N1)C(=O)OCC(C)(C)C2 was tested, and the IC50 (second compound 0.000949 µM) was > 100 nM, the IC50 (second compound 0.003 µM) was 32.6 nM and the IC50 (second compound 0.00949 µM) was < 0.316 nM. The IC50 (second compound 0.03 µM) was < 0.316 nM, the IC50 (second compound 0.0949 µM) was < 0.316 nM and the IC50 (second compound 0.3 µM) was < 0.316 nM. It also gave a viability, T/C (second compound 0.000949 µM, first compound 0.000316 µM) of 79.2%, a viability, T/C (second compound 0.000949 µM, first compound 0.001 µM) of 71.7% and a viability, T/C [1] of 70.3%. For the same compound, the viability, T/C [2] was 71.4%, the viability, T/C [3] was 65.5% and the viability, T/C [4] was 65.9%. For the same compound, the viability, T/C (second compound 0.003 µM, first compound 0.000316 µM) was 64.2%, the viability, T/C (second compound 0.003 µM, first compound 0.001 µM) was 57.5% and the viability, T/C [5] was 59.6%. The viability, T/C [6] was 52.9%, the viability, T/C [7] was 53.2% and the viability, T/C [8] was 40.9%. For the same compound, the viability, T/C (second compound 0.00949 µM, first compound 0.000316 µM) was 36.3%, the viability, T/C (second compound 0.00949 µM, first compound 0.001 µM) was 34.2% and the viability, T/C [9] was 35.9%. It also gave a viability, T/C [10] of 29%, a viability, T/C [11] of 27.7% and a viability, T/C [12] of 23.7%. The viability, T/C (second compound 0.03 µM, first compound 0.000316 µM) was 19.4%, the viability, T/C (second compound 0.03 µM, first compound 0.001 µM) was 19.6% and the viability, T/C [13] was 20.6%. It also gave a viability, T/C [14] of 17%, a viability, T/C [15] of 14.6% and a viability, T/C [16] of 10.7%. It also gave a viability, T/C (second compound 0.0949 µM, first compound 0.000316 µM) of 15.4%, a viability, T/C (second compound 0.0949 µM, first compound 0.001 µM) of 16.2% and a viability, T/C [17] of 14.8%. It also gave a viability, T/C [18] of 14.2%, a viability, T/C [19] of 9.96% and a viability, T/C [20] of 6.66%. It also gave a viability, T/C (second compound 0.3 µM, first compound 0.000316 µM) of 15.2%, a viability, T/C (second compound 0.3 µM, first compound 0.001 µM) of 15.5% and a viability, T/C [21] of 12.6%. The viability, T/C [22] was 12.4%, the viability, T/C [23] was 8.16% and the viability, T/C [24] was 4.66%.
For `CCN1CCN(Cc2ccc(Nc3ncc(F)c(-c4cc(F)c5nc(C)n(C(C)C)c5c4)n3)nc2)CC1` + CCn1c(-c2cc(N3CCN(C)CC3)cnc2C(C)OC)c2c3cc(ccc31)-c1csc(n1)CC(NC(=O)C1CC1C)C(=O)N1CCCC(N1)C(=O)OCC(C)(C)C2, the IC50 (second compound 0.000949 µM) was > 1000 nM, the IC50 (second compound 0.003 µM) was > 1000 nM and the IC50 (second compound 0.00949 µM) was < 3.16 nM. For the same compound, the IC50 (second compound 0.03 µM) was < 3.16 nM, the IC50 (second compound 0.0949 µM) was < 3.16 nM and the IC50 (second compound 0.3 µM) was < 3.16 nM. For the same compound, the viability, T/C [1] was 75.8%, the viability, T/C [2] was 88% and the viability, T/C [3] was 92.3%. The viability, T/C [4] was 84.9%, the viability, T/C [25] was 94.6% and the viability, T/C [26] was 114%. For the same compound, the viability, T/C [5] was 58.6%, the viability, T/C [6] was 59.5% and the viability, T/C [7] was 57.9%. The viability, T/C [8] was 59.7%, the viability, T/C [27] was 62.6% and the viability, T/C [28] was 64%. It also gave a viability, T/C [9] of 34.3%, a viability, T/C [10] of 36.4% and a viability, T/C [11] of 34.4%. The viability, T/C [12] was 39.4%, the viability, T/C [29] was 34.8% and the viability, T/C [30] was 32.5%. The viability, T/C [13] was 20.2%, the viability, T/C [14] was 21.9% and the viability, T/C [15] was 18.5%. For the same compound, the viability, T/C [16] was 18%, the viability, T/C [31] was 20.3% and the viability, T/C [32] was 20.8%. It also gave a viability, T/C [17] of 15.2%, a viability, T/C [18] of 15.7% and a viability, T/C [19] of 14.5%. It also gave a viability, T/C [20] of 17%, a viability, T/C [33] of 19.3% and a viability, T/C [34] of 17.1%. The viability, T/C [21] was 15.6%, the viability, T/C [22] was 14.8% and the viability, T/C [23] was 13.6%. It also gave a viability, T/C [24] of 13.3%, a viability, T/C [35] of 13.2% and a viability, T/C [36] of 18.2%.
In the case of `C[C@@H](NC(=O)c1ncnc(N)c1Cl)c1ncc(C(=O)Nc2cc(C(F)(F)F)c(Cl)cn2)s1` + CCn1c(-c2cc(N3CCN(C)CC3)cnc2C(C)OC)c2c3cc(ccc31)-c1csc(n1)CC(NC(=O)C1CC1C)C(=O)N1CCCC(N1)C(=O)OCC(C)(C)C2, the IC50 (second compound 0.000949 µM) is reported as > 10000 nM, the IC50 (second compound 0.003 µM) is reported as > 10000 nM and the IC50 (second compound 0.00949 µM) is reported as < 31.6 nM. For the same compound, the IC50 (second compound 0.03 µM) was < 31.6 nM, the IC50 (second compound 0.0949 µM) was < 31.6 nM and the IC50 (second compound 0.3 µM) was < 31.6 nM. It also gave a viability, T/C [3] of 82.2%, a viability, T/C [4] of 95.5% and a viability, T/C [25] of 76.9%. It also gave a viability, T/C [26] of 73.4%, a viability, T/C (second compound 0.000949 µM, first compound 3.16 µM) of 58.8% and a viability, T/C (second compound 0.000949 µM, first compound 10 µM) of 66.8%. It also gave a viability, T/C [7] of 74.1%, a viability, T/C [8] of 69.4% and a viability, T/C [27] of 62.9%. For the same compound, the viability, T/C [28] was 60.5%, the viability, T/C (second compound 0.003 µM, first compound 3.16 µM) was 55.1% and the viability, T/C (second compound 0.003 µM, first compound 10 µM) was 54.7%. It also gave a viability, T/C [11] of 47.9%, a viability, T/C [12] of 50.3% and a viability, T/C [29] of 47.7%. It also gave a viability, T/C [30] of 46.6%, a viability, T/C (second compound 0.00949 µM, first compound 3.16 µM) of 47% and a viability, T/C (second compound 0.00949 µM, first compound 10 µM) of 44.6%. For the same compound, the viability, T/C [15] was 25.8%, the viability, T/C [16] was 33% and the viability, T/C [31] was 32%. For the same compound, the viability, T/C [32] was 31.9%, the viability, T/C (second compound 0.03 µM, first compound 3.16 µM) was 37.6% and the viability, T/C (second compound 0.03 µM, first compound 10 µM) was 35.9%. The viability, T/C [19] was 19.7%, the viability, T/C [20] was 23.8% and the viability, T/C [33] was 25.3%. For the same compound, the viability, T/C [34] was 27.1%, the viability, T/C (second compound 0.0949 µM, first compound 3.16 µM) was 30.8% and the viability, T/C (second compound 0.0949 µM, first compound 10 µM) was 27.6%. The viability, T/C [23] was 18.6%, the viability, T/C [24] was 20.7% and the viability, T/C [35] was 23.1%. The viability, T/C [36] was 21.9%, the viability, T/C (second compound 0.3 µM, first compound 3.16 µM) was 26.4% and the viability, T/C (second compound 0.3 µM, first compound 10 µM) was 27.9%.
